Source: patent US6437128B1, “Cribrostatins 3-5” (Arizona Board of Regents, priority 2001, dated 2002)

How the values were obtained:
[1] = test system: Cryptococcus neoformans (ATCC 90112); assay: Antimicrobial disk diffusion; assay type: cell-based
HOP-62 = assay: NCI 60-cell screen; assay type: cell-based, human; conditions: Homo sapiens, averaged, quadruplicate, upper limit 10^−5 M, read-out: negative log10 GI50 (converted)
K-562 = assay: NCI 60-cell screen; assay type: cell-based, human; conditions: Homo sapiens, K562, averaged, quadruplicate, upper limit 10^−5 M, read-out: negative log10 GI50 (converted)
NCI-H522 = assay: NCI 60-cell screen; assay type: cell-based, human; conditions: Homo sapiens, averaged, quadruplicate, upper limit 10^−5 M, read-out: negative log10 GI50 (converted)
LOX IMVI = assay: NCI 60-cell screen; assay type: cell-based, human; conditions: Homo sapiens, averaged, quadruplicate, upper limit 10^−5 M, read-out: negative log10 GI50 (converted)
SF-539 = assay: NCI 60-cell screen; assay type: cell-based, human; conditions: Homo sapiens, averaged, quadruplicate, upper limit 10^−5 M, read-out: negative log10 GI50 (converted)
[2] = test system: Neisseria gonorrhoeae (ATCC 49226); assay: Antimicrobial disk diffusion; assay type: cell-based
A549/ATCC = assay: NCI 60-cell screen; assay type: cell-based, human; conditions: Homo sapiens, averaged, quadruplicate, upper limit 10^−5 M, read-out: negative log10 GI50 (converted)
SN12C = assay: NCI 60-cell screen; assay type: cell-based, human; conditions: Homo sapiens, averaged, quadruplicate, upper limit 10^−5 M, read-out: negative log10 GI50 (converted)
OVCAR4 = assay: NCI 60-cell screen; assay type: cell-based, human; conditions: Homo sapiens, OVCAR-4, averaged, quadruplicate, upper limit 10^−5 M, read-out: negative log10 GI50 (converted)
SF-268 = assay: NCI 60-cell screen; assay type: cell-based, human; conditions: Homo sapiens, averaged, quadruplicate, upper limit 10^−5 M, read-out: negative log10 GI50 (converted)
COLO 205 = assay: NCI 60-cell screen; assay type: cell-based, human; conditions: Homo sapiens, averaged, quadruplicate, upper limit 10^−5 M, read-out: negative log10 GI50 (converted)
[3] = test system: Stenotrophomonas maltophilia (ATCC 13637); assay: Antimicrobial disk diffusion; assay type: cell-based
MCF7 = assay: NCI 60-cell screen; assay type: cell-based, human; conditions: Homo sapiens, averaged, quadruplicate, upper limit 10^−5 M, read-out: negative log10 GI50 (converted)
[4] = test system: Staphylococcus aureus (ATCC 29213); assay: Antimicrobial disk diffusion; assay type: cell-based
MDA-N = assay: NCI 60-cell screen; assay type: cell-based, human; conditions: Homo sapiens, averaged, quadruplicate, upper limit 10^−5 M, read-out: negative log10 GI50 (converted)
RXF-393 = assay: NCI 60-cell screen; assay type: cell-based, human; conditions: Homo sapiens, averaged, quadruplicate, upper limit 10^−5 M, read-out: negative log10 GI50 (converted)
HS578T = assay: NCI 60-cell screen; assay type: cell-based, human; conditions: Homo sapiens, Hs-578T, averaged, quadruplicate, upper limit 10^−5 M, read-out: negative log10 GI50 (converted)
SF-295 = assay: NCI 60-cell screen; assay type: cell-based, human; conditions: Homo sapiens, averaged, quadruplicate, upper limit 10^−5 M, read-out: negative log10 GI50 (converted)
[5] = test system: Micrococcus luteus (Presque Isle 456); assay: Antimicrobial disk diffusion; assay type: cell-based; conditions: listed as 5
[6] = test system: Escherichia coli (ATCC 25922); assay: Antimicrobial disk diffusion; assay type: cell-based
ACHN = assay: NCI 60-cell screen; assay type: cell-based, human; conditions: Homo sapiens, averaged, quadruplicate, upper limit 10^−5 M, read-out: negative log10 GI50 (converted)
HL-60 (TB) = assay: NCI 60-cell screen; assay type: cell-based, human; conditions: Homo sapiens, averaged, quadruplicate, upper limit 10^−5 M, read-out: negative log10 GI50 (converted)
[7] = test system: Candida albicans (ATCC 90028); assay: Antimicrobial disk diffusion; assay type: cell-based
MCF7/ADR-RES = assay: NCI 60-cell screen; assay type: cell-based, human; conditions: Homo sapiens, averaged, quadruplicate, upper limit 10^−5 M, read-out: negative log10 GI50 (converted)

Question: With `C/C=C(/C)C(=O)OC[C@H]1C2=C(C=C3[C@H]4c5c(O)c(OC)c(C)c(O)c5C(=O)[C@@H](C(=O)N31)N4C)C(=O)C(C)=C(OC)C2=O` [Cribrostatin 4, cribrostatin 4] as the compound, how does the Minimum inhibitory concentration [1] read?
Answer: Its Minimum inhibitory concentration is “* (No inhibition at 100 μg/disk)”.

Question: And the GI50 (HOP-62)?
Answer: The GI50 was 7.59 µM.

Question: And the GI50 (K-562)?
Answer: The GI50 was 4.37 µM.

Question: And the GI50 (NCI-H522)?
Answer: Its GI50 is 4.17 µM.

Question: What about the GI50 (LOX IMVI) of the same compound?
Answer: Its GI50 is 3.31 µM.

Question: What about the GI50 (SF-539) of the same compound?
Answer: Its GI50 is 5.75 µM.

Question: And the Minimum inhibitory concentration [2]?
Answer: Its Minimum inhibitory concentration is 6.25-12.5 μg/disk.

Question: What about the GI50 (A549/ATCC) of the same compound?
Answer: Its GI50 is 8.71 µM.

Question: And the GI50 (SN12C)?
Answer: The GI50 was 7.08 µM.

Question: What about the GI50 (OVCAR4) of the same compound?
Answer: Its GI50 is 1.82 µM.

Question: What about the GI50 (SF-268) of the same compound?
Answer: The GI50 was 9.55 µM.

Question: And the GI50 (COLO 205)?
Answer: Its GI50 is 8.13 µM.

Question: What about the Minimum inhibitory concentration [3] of the same compound?
Answer: Its Minimum inhibitory concentration is “* (No inhibition at 100 μg/disk)”.

Question: What about the GI50 (MCF7) of the same compound?
Answer: Its GI50 is 8.13 µM.

Question: And the Minimum inhibitory concentration [4]?
Answer: The Minimum inhibitory concentration was “* (No inhibition at 100 μg/disk)”.

Question: And the GI50 (MDA-N)?
Answer: The GI50 was 2.19 µM.

Question: What about the GI50 (RXF-393) of the same compound?
Answer: The GI50 was 5.25 µM.

Question: And the GI50 (HS578T)?
Answer: The GI50 was 8.71 µM.

Question: What about the GI50 (SF-295) of the same compound?
Answer: Its GI50 is 8.91 µM.

Question: What about the Minimum inhibitory concentration [5] of the same compound?
Answer: Its Minimum inhibitory concentration is “* (No inhibition at 100 μg/disk)”.

Question: And the Minimum inhibitory concentration [6]?
Answer: Its Minimum inhibitory concentration is “* (No inhibition at 100 μg/disk)”.

Question: And the GI50 (ACHN)?
Answer: Its GI50 is 7.94 µM.

Question: And the GI50 (HL-60 (TB))?
Answer: The GI50 was 5.37 µM.

Question: And the Minimum inhibitory concentration [7]?
Answer: The Minimum inhibitory concentration was “* (No inhibition at 100 μg/disk)”.

Question: And the GI50 (MCF7/ADR-RES)?
Answer: The GI50 was 6.76 µM.
